Data on seven molecules can be found in patent publication US11208443B2, “NAF-1 derived peptides and uses thereof” (YISSUM RESEARCH DEVELOPMENT COMPANY OF THE HEBREW …, priority 2017, dated 2021).

The nature of data set [1]: Cell viability of malignant cells (Examples 1, 6, 10). It is filed as cell-based, human. From the text:
(§1) However, substitution of several amino acids to Ala drastically diminished the toxicity of these analogs.

In data set [2] the test system is MCF-10A cells.
Protocol: The ability of the peptide having the sequence SEQ ID NO: 1 to penetrate into the cells and its effect on cells' viability was tested as following. Green fluorescein was conjugated to the peptide having SEQ ID NO: 1 (the labeled peptide is referred as PEP-FL). Then, the fluorescent peptide was incubated with normal, non-tumor epithelial cell line (MCF-10A) and malignant (MDA-MB-231) breast epithelial cells. The mitochondria of the cells were labeled red with RPA and the cells' nuclei were labeled with Hoechst 33342 (blue dye).
The subject of data set [3] is MDA-MB-231 cells. The data set can be described thus: Cell viability of malignant cells (Examples 1, 6, 10). It is filed as cell-based, human.
Text: as §1

In data set [4] the test system is MDA-MB-231 cells. The data set can be described thus: Effect of labeled peptide on mitochondria and nuclei, confocal imaging. It is filed as cell-based, human. On the procedure:
(§2) To elucidate the site of action of the peptide having SEQ ID NO: 1, the peptide was labeled as described in Example 1 and incubated with normal and malignant cells (MCF-10A and MDA-MB-231 cells, respectively). […] Without being bound to any specific theory it was estimates that the peptide affects or disrupts the structure of the mitochondrial and nuclear membrane.

Data set [5] deals with MCF-10A cells. As to the kind of experiment: Effect of labeled peptide on nuclei, confocal imaging. It is filed as cell-based. To be noted: FIG. 6C. The protocol: as §2
Data set [6] relates to MCF-10A cells. The data set can be described thus: Penetration of fluorescein-labeled peptide into non-malignant cells. To be noted: FIG. 2. It counts as cell-based. On the procedure: as §2
(§3) In addition to D-PEP peptide (SEQ ID NO:3), in which all amino acids of SEQ ID NO: 1 were substituted to D-amino acids, a peptide comprising only 3 D-amino acids was produced and has the sequence FLGVLALLGyLAVRPfLPKkKQQK (SEQ ID NO: 2, referred as 3D-PEP). This peptide, as well as D-PEP, both marked with Fluorescein, were tested for their ability to penetrate into non-tumor MCF-10A and malignant MDA-MB-231 and for their toxicity, as described in Example 3. Briefly, cells were incubated with 10 μM of each sample of the peptides for 3 h and then intensively washed. Cell fluorescence was observed by semi-confocal microscope. For cell viability measurement, cells were incubated with 10 μM or 5 μM of each one of the peptides for 5 days and then cell viability was assayed using Alamar blue assay.

For data set [7], the system named is MDA-MB-231 cells. The data set can be described thus: Penetration of fluorescein-labeled peptide into malignant cells. It is filed as cell-based, human. To be noted: FIG. 2, FIG. 6A. The protocol:
as §2, §3

Data set [8] has as its system chymotrypsin. As to the kind of experiment: Stability against protease cleavage, HPLC. It counts as in vitro ADME. On the procedure: Stability of the D-PEP, and 3D-PEP, analogs, and of PEG-N-3D-PEP and PEG-C-3D-PEP conjugates against protease cleavage (chymotrypsin and trypsin) was tested and compared to stability of the native peptide having SEQ ID NO: 1. To peptides' stocks of 430 μl in concentration of 450 μM were added 0.001 mg/ml protease (Trypsin or Chymotrypsin) and incubated in room temperature (22° C.). Samples of 40 μl were taken before adding the protease and after every 15 min in the first hour, and after 2 […] and 24 h. To stop the proteolysis samples were added 7 μl of 2% TFA in TDW. The samples were added 60 μl TDW and were analyzed using analytical HPLC.

Read-outs that look alike come from different tables or passages of the source. Non-standard residues stand in square brackets, D forms with d. Residues, ends and D or L forms follow the SMILES beside them. No end group written: not given here. PEG8 = NCCOCCOCCOCCOCCOCCOCCOCCOCCC(=O)O

`CC(C)C[C@H](NC(=O)[C@H](C)NC(=O)[C@H](CC(C)C)NC(=O)[C@@H](NC(=O)CNC(=O)[C@H](CC(C)C)NC(=O)[C@H](Cc1ccccc1)NC(=O)CCOCCOCCOCCOCCOCCOCCOCCOCCN)C(C)C)C(=O)N[C@@H](CC(C)C)C(=O)NCC(=O)N[C@H](Cc1ccc(O)cc1)C(=O)N[C@@H](CC(C)C)C(=O)N[C@@H](C)C(=O)N[C@H](C(=O)N[C@@H](CCCNC(=N)N)C(=O)N1CCC[C@H]1C(=O)N[C@H](Cc1ccccc1)C(=O)N[C@@H](CC(C)C)C(=O)N1CCC[C@H]1C(=O)N[C@@H](CCCCN)C(=O)N[C@H](CCCCN)C(=O)N[C@@H](CCCCN)C(=O)N[C@@H](CCC(N)=O)C(=O)N[C@@H](CCC(N)=O)C(=O)N[C@@H](CCCCN)C(N)=O)C(C)C` [PEG-N-3D-PEP] (H-[PEG8]FLGVLALLG[dY]LAVRP[dF]LPK[dK]KQQK-NH2; C-terminus assumed) returned a cytotoxicity in data set [1] of roughly 80%. For the same molecule, in data set [2], the “effect on viability of normal cells” value was “much weaker effect”.

As to `CC(C)C[C@H](NC(=O)[C@H](C)NC(=O)[C@H](C)NC(=O)[C@H](C)NC(=O)[C@@H](NC(=O)CNC(=O)[C@H](CC(C)C)NC(=O)[C@@H](N)Cc1ccccc1)C(C)C)C(=O)NCC(=O)N[C@@H](Cc1ccc(O)cc1)C(=O)N[C@@H](CC(C)C)C(=O)N[C@@H](C)C(=O)N[C@H](C(=O)N[C@@H](CCCNC(=N)N)C(=O)N1CCC[C@H]1C(=O)N[C@@H](Cc1ccccc1)C(=O)N[C@@H](CC(C)C)C(=O)N1CCC[C@H]1C(=O)N[C@@H](CCCCN)C(=O)N[C@@H](CCCCN)C(=O)N[C@@H](CCCCN)C(=O)N[C@@H](CCC(N)=O)C(=O)N[C@@H](CCC(N)=O)C(=O)N[C@@H](CCCCN)C(=O)O)C(C)C` [PEP-L48A-L50A] (H-FLGVAAALGYLAVRPFLPKKKQQK-OH; N-terminus and C-terminus assumed), in data set [3], the “cytotoxic activity of alanine analogs” value is on record as “completely lost their cytotoxic activity”. Consider “PEP-FL: Green fluorescein was conjugated to the peptide having SEQ ID NO: 1 (FLGVLALLGYLAVRPFLPKKKQQK; also: green fluorescein conjugated, site not given here)”, for which, in data set [4] (12 hours of incubation, FIG. 6C), the “effect on nuclei of malignant cells” value was “completely disappeared”. Moreover, in data set [4] (time after peptide addition, FIG. 6B), the “effect on mitochondria of malignant cells” value is reported as “disappeared within three hours”. The “effect on nuclei of normal cells” value in data set [5] is on record as “no serious damage”. Further, the “uptake of fluorescent peptide by normal cells” value in data set [6] is “not by normal cells”. Also, the “uptake of fluorescent peptide by malignant cells” value in data set [7] is “preferentially up-taken by the cancer MDA-MB-231 cells”. Molecule `CC(C)C[C@H](NC(=O)[C@H](C)NC(=O)[C@H](CC(C)C)NC(=O)[C@@H](NC(=O)CNC(=O)[C@H](CC(C)C)NC(=O)[C@@H](N)Cc1ccccc1)C(C)C)C(=O)N[C@@H](CC(C)C)C(=O)NCC(=O)N[C@H](Cc1ccc(O)cc1)C(=O)N[C@@H](CC(C)C)C(=O)N[C@@H](C)C(=O)N[C@H](C(=O)N[C@@H](CCCNC(=N)N)C(=O)N1CCC[C@H]1C(=O)N[C@H](Cc1ccccc1)C(=O)N[C@@H](CC(C)C)C(=O)N1CCC[C@H]1C(=O)N[C@@H](CCCCN)C(=O)N[C@H](CCCCN)C(=O)N[C@@H](CCCCN)C(=O)N[C@@H](CCC(N)=O)C(=O)N[C@@H](CCC(N)=O)C(=O)N[C@@H](CCCCN)C(=O)NCCOCCOCCOCCOCCOCCOCCOCCOCCC(N)=O)C(C)C` [PEG-C-3D-PEP] (H-FLGVLALLG[dY]LAVRP[dF]LPK[dK]KQQK[PEG8]-NH2; N-terminus assumed) registered a cytotoxicity in data set [1] of roughly 70%. The “effect on viability of normal cells” value in data set [2] was “much weaker effect”.

Regarding `CC(C)C[C@H](NC(=O)[C@H](C)NC(=O)[C@H](C)NC(=O)[C@@H](NC(=O)CNC(=O)[C@H](C)NC(=O)[C@H](C)N)C(C)C)C(=O)N[C@@H](CC(C)C)C(=O)NCC(=O)N[C@@H](Cc1ccc(O)cc1)C(=O)N[C@@H](CC(C)C)C(=O)N[C@@H](C)C(=O)N[C@H](C(=O)N[C@@H](CCCNC(=N)N)C(=O)N1CCC[C@H]1C(=O)N[C@@H](Cc1ccccc1)C(=O)N[C@@H](CC(C)C)C(=O)N1CCC[C@H]1C(=O)N[C@@H](CCCCN)C(=O)N[C@@H](CCCCN)C(=O)N[C@@H](CCCCN)C(=O)N[C@@H](CCC(N)=O)C(=O)N[C@@H](CCC(N)=O)C(=O)N[C@@H](CCCCN)C(=O)O)C(C)C` [PEP-F44A-L45A-L48A] (H-AAGVAALLGYLAVRPFLPKKKQQK-OH; N-terminus and C-terminus assumed), the “cytotoxic activity of alanine analogs” value in data set [3] is on record as “completely lost their cytotoxic activity”.

Take `CC(C)C[C@H](NC(=O)[C@H](C)NC(=O)[C@H](CC(C)C)NC(=O)[C@@H](NC(=O)CNC(=O)[C@H](C)NC(=O)[C@H](C)N)C(C)C)C(=O)N[C@@H](CC(C)C)C(=O)NCC(=O)N[C@@H](Cc1ccc(O)cc1)C(=O)N[C@@H](CC(C)C)C(=O)N[C@@H](C)C(=O)N[C@H](C(=O)N[C@@H](CCCNC(=N)N)C(=O)N1CCC[C@H]1C(=O)N[C@@H](Cc1ccccc1)C(=O)N[C@@H](CC(C)C)C(=O)N1CCC[C@H]1C(=O)N[C@@H](CCCCN)C(=O)N[C@@H](CCCCN)C(=O)N[C@@H](CCCCN)C(=O)N[C@@H](CCC(N)=O)C(=O)N[C@@H](CCC(N)=O)C(=O)N[C@@H](CCCCN)C(=O)O)C(C)C` [PEP-F44A-L45A] (H-AAGVLALLGYLAVRPFLPKKKQQK-OH; N-terminus and C-terminus assumed): the “cytotoxic activity of alanine analogs” value in data set [3] (MDA-MB-231, FIG. 18) was “completely lost their cytotoxic activity”. With `CC(C)C[C@H](NC(=O)[C@H](C)NC(=O)[C@H](CC(C)C)NC(=O)[C@@H](NC(=O)CNC(=O)[C@H](CC(C)C)NC(=O)[C@@H](N)Cc1ccccc1)C(C)C)C(=O)N[C@@H](CC(C)C)C(=O)NCC(=O)N[C@H](Cc1ccc(O)cc1)C(=O)N[C@@H](CC(C)C)C(=O)N[C@@H](C)C(=O)N[C@H](C(=O)N[C@@H](CCCNC(=N)N)C(=O)N1CCC[C@H]1C(=O)N[C@H](Cc1ccccc1)C(=O)N[C@@H](CC(C)C)C(=O)N1CCC[C@H]1C(=O)N[C@@H](CCCCN)C(=O)N[C@H](CCCCN)C(=O)N[C@@H](CCCCN)C(=O)N[C@@H](CCC(N)=O)C(=O)N[C@@H](CCC(N)=O)C(=O)N[C@@H](CCCCN)C(=O)O)C(C)C` [3D-PEP, FLGVLALLGyLAVRPfLPKkKQQK] (H-FLGVLALLG[dY]LAVRP[dF]LPK[dK]KQQK-OH; N-terminus and C-terminus assumed), the “half life against chymotrypsin compared to native peptide” value in data set [8] is given as “much longer half life”.
